According to PMC2849142 (Clinical and translational science, 2009):
Like-named read-outs stand apart in the source and are kept apart here. Blank lines part the entries; values can stand above or below the compound they belong to.

Experiments:
[1] = tested on: Neonatal rat ventricular myocytes (NRVMs); experiment: ATP content of cultured cardiomyocytes; format: cell-based
[2] = tested on: AMPK; experiment: AICAR-induced activation of AMPK in NRVMs; format: cell-based, rat; conditions: for activity of AMPK following AICAR, as determined by ACC phosphorylation: NRVMs pre-treated 4h, then AICAR 1 mM 1h
[3] = tested on: Neonatal rat ventricular myocytes (NRVMs); experiment: TUNEL staining of cultured cardiomyocytes; format: cell-based
[4] = tested on: NRVMs; experiment: Rescue of sunitinib injury in NRVMs by AMPK activators; conditions: cells pre-treated with AICAR, then exposed to sunitinib
[5] = tested on: NRVMs; conditions: cited from earlier work
[6] = molecular target: CAMKK1 (Homo sapiens, UniProt Q8N5S9); experiment: Recombinant biochemical kinase assay, sunitinib vs CAMKK1
Chain of CAMKK1 (Q8N5S9 whole entry): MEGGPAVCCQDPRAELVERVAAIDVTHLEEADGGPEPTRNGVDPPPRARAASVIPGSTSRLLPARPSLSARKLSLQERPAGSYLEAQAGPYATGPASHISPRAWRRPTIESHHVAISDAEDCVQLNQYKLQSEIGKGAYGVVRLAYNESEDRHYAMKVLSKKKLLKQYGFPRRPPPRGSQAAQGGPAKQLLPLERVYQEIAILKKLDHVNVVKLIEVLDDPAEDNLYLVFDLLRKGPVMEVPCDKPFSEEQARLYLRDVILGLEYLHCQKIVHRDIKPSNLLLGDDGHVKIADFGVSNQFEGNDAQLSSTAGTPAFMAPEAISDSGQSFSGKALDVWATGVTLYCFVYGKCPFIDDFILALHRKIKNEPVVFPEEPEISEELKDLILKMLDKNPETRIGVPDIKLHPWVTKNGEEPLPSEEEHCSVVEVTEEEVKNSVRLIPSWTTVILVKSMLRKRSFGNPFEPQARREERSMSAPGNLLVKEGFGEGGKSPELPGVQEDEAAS

[7] = tested on: C57Bl/6 mice; experiment: Echocardiographic indices of sunitinib-treated mice; format: in vivo, mouse; conditions: 25 mg/kg/d in chow, 5 weeks, mean ± SD
[8] = tested on: C57Bl/6 mice; experiment: Cardiomyocyte cross-sectional area on H&E-stained heart sections of treated mice; format: in vivo, mouse; conditions: 25 mg/kg/d, 5 weeks, p < 0.01 vs. vehicle, n = 4
[9] = tested on: C57Bl/6 mice; experiment: Myocardial capillary density; format: in vivo, mouse; conditions: 25 mg/kg/d, 5 weeks, isolectin B4, n = 3
[10] = tested on: AMPK; experiment: Phospho-ACC immunoblot of heart lysates of treated mice; format: in vivo, mouse; conditions: 25 mg/kg/d, 5 wks, p < 0.05 vs. control, n = 4 hearts
[11] = tested on: Neonatal rat ventricular myocytes (NRVMs); experiment: Mitochondrial membrane potential; format: cell-based; conditions: 1 μM sunitinib, 12h
[12] = tested on: AMPK; experiment: Phospho-AMPK; format: cell-based, rat; conditions: NRVMs, sunitinib 1 μM; p < 0.01 vs. control, n = 4
[13] = tested on: AMPK; experiment: Phospho-ACC immunoblot in NRVMs; format: cell-based, rat; conditions: sunitinib 1 μM, p < 0.01, n = 4
[14] = tested on: mTORC1; experiment: Phospho-eEF2 immunoblot in NRVMs; format: cell-based, rat; conditions: sunitinib 1 μM, p < 0.01, n = 4
[15] = tested on: RET; conditions: read-out: IC50 vs RET; known sunitinib target; cited from earlier work
[16] = tested on: patients; conditions: cited from earlier work
[17] = tested on: mitochondria; conditions: cited from earlier work
[18] = ref http://www.pfizer.com/files/products/uspi_sutent.pdf; cited from earlier work

- [ATP] in cardiomyocytes [1]: reduction in [ATP]
Structure (SMILES): c1cc(-c2cnn3cc(-c4ccc(OCCN5CCCCC5)cc4)cnc23)ccn1 [Compound C]
- activity of AMPK following AICAR, as determined by ACC phosphorylation [2]: Inhibition
- cardiomyocyte apoptosis (TUNEL) [3]: induced apoptosis

Structure (SMILES): NC(=O)c1ncn([C@@H]2O[C@H](CO)[C@@H](O)[C@H]2O)c1N [AICAR]
- AMPK signaling (phospho-ACC) in the setting of sunitinib ([2]; AICAR 1 mM 1h after sunitinib pre-treatment 4h): failed to increase AMPK signaling
- rescue of sunitinib toxicity by pre-treatment with the AMPK activator [4]: failed to rescue

Structure (SMILES): CN(C)C(=N)N=C(N)N [metformin]
- reduction of sunitinib injury in NRVMs [5]: failed to reduce sunitinib injury

Structure (SMILES): CCN(CC)CCNC(=O)c1c(C)[nH]c(/C=C2\C(=O)Nc3ccc(F)cc32)c1C [sunitinib]
- IC50 ([6]; IC50 vs CAMKK1 (range)): 4.5 to 6 µM
- IC50 ([6]; Mean IC50, recombinant biochemical kinase assays, two to seven sets of assays): 5.25 µM
- EF (ejection fraction) [7]: 52.5 ± 6.85%
- FS (fractional shortening) [7]: 31.3 ± 5.07%
- LVEDD (left ventricular end-diastolic dimension) [7]: 3.51 ± 0.18 mm
- LVPW (left ventricular posterior wall thickness) [7]: 0.86 ± 0.06 mm
- LVW/BW (left ventricular mass normalized to body weight) [7]: 4.49 ± 0.28 mg/g
- LVESD (left ventricular end-systolic dimension) ([7]; P < 0.05 versus vehicle): 2.41 ± 0.27 mm
- cardiomyocyte size (cross-sectional area) on H & E-stained heart sections [8]: cardiomyocyte hypertrophy
- myocardial capillary density [9]: does not alter
- phosphorylation of ACC2 in the heart in vivo [10]: significantly reduced
- mitochondrial membrane potential (Δψm) [11]: loss of Δψm
- [ATP] in cardiomyocytes ([1]; 8h treatment, p < 0.05 vs. control): significantly reduced
- phosphorylation of AMPK at the activating site (T172) [12]: modest but consistent increase
- phosphorylation of ACC1/2 [13]: significantly reduced
- activity of AMPK following AICAR, as determined by ACC phosphorylation [2]: significantly reduced
- phosphorylation of eEF2 [14]: marked increase
- cardiomyocyte apoptosis (TUNEL) ([3]; 28 hrs treatment, p < 0.05 vs. control): induce cardiomyocyte apoptosis
- patients developing congestive heart failure (CHF) [16]: 8–15%
- direct toxicity to mitochondria [17]: not directly toxic to mitochondria
